These results are taken from patent US12138254B2, “Chronic nightly dosing of lasmiditan for migraine prevention” (Eli Lilly and Company, priority 2018, dated 2024).

For series [1], the system named is dural plasma protein extravasation. Put plainly: Trigeminal stimulation-induced dural plasma protein extravasation (PPE) in rats. In kind it is in vivo, Sprague-Dawley rats. The text has this: Migraine is a painful condition thought to involve neurogenic inflammation of the dural membrane and activation of the trigeminal nervous system. The 5-HT1F receptor is widely expressed in the CNS and peripheral nerves, including the trigeminal ganglia, dorsal root ganglia and trigeminal nucleus caudalis. Plasma protein extravasation (PPE), one component of neurogenic inflammation, can be induced in the dura of rats by electrically stimulating the trigeminal ganglion. Considering the role of the trigeminal nerve in the physiology of migraine, this study is useful to characterize the ability of lasmiditan-hemisuccinate to block plasma protein extravasation in the dura of rats following electrical stimulation of the trigeminal ganglion.
To investigate the potential of lasmiditan to modify the dysfunction in the target tissue, the duration of effect following a single oral dose of lasmiditan-hemisuccinate was also determined. Electrical stimulation of the trigeminal ganglion of rats and guinea pigs can be used to induce neurogenic inflammation in the meninges (dura). Briefly, unilateral electrical stimulation of either the left or right trigeminal ganglion using electrodes implanted stereotaxically is used to induce ipsilateral neurogenic inflammation and the increased extravasation of plasma proteins.
Lasmiditan-hemisuccinate is dissolved in sterile water. All doses of lasmiditan are reported as free base equivalent doses, accounting for the weight of the salt. Envigo Sprague-Dawley, Sprague-Dawley male rats (250-350 grams, n=4/group) are fasted overnight prior to dosing. The animals are orally gavaged (2 mL/kg dose volume) with test compound or vehicle one hour prior to stimulation time and returned to their cages with only water available. Approximately 50 minutes post-dosing, the rats are anesthetized with Nembutal (65 mg/kg, ip.) and implanted with stainless steel stimulating electrodes (Rhodes Medical Systems, Inc.) to a depth of 9.2 mm. from the dura. The femoral vein is exposed and fluorescein isothiocyanate-labeled bovine serum albumin (FITC-BSA) (20 mg/kg, iv.), is injected into the femoral vein 2 minutes prior to stimulation. The FITC-BSA functions as a marker for protein extravasation. The left trigeminal ganglion is stimulated for 5 minutes at a current intensity of 1.0 mA (5 Hz, 5 msec pulse duration) with a Model S48 Grass Instrument Stimulator with PSIU6 photoelectric isolation unit (Grass-Telefactor). Five minutes following stimulation, a blood sample is collected by cardiac puncture and the rats are sacrificed by exsanguination with 40 ml of saline. One milliliter of blood is collected and placed in a 1.5 ml EDTA coated tube (Fisher Cat. #540734) on ice. Plasma is separated via centrifugation at 10,000 rpm (941 g) for thirty minutes at 4° C. The top of the skull is removed to collect the brain and dural membranes. The brain and plasma samples are frozen at −80° C. until thawed for compound quantification. The membrane samples are removed from both hemispheres, rinsed with water, and spread flat on microscope slides. The slides are dried for 15 minutes on a slide warmer, then the tissues are cover-slipped with a 70% glycerol/water solution. A fluorescence microscope (Zeiss) equipped with a grating monochromator and a spectrophotometer is used to quantify the amount of FITC-BSA dye in each dural sample. The extravasation induced by electrical stimulation of the trigeminal ganglion is an ipsilateral effect (i.e. occurs only on the side of the dura in which the trigeminal ganglion was stimulated). This allows the other (unstimulated) half of the dura to be used as the control. The ratio of extravasation in the dura from the stimulated side versus the unstimulated side is calculated and reported as the extravasation ratio for each animal. The mean extravasation ratio and standard error of the mean (SEM) are calculated for each treatment group. Controls yield a ratio of approximately 1.8. […]

A further series relates to patients with migraine. Put plainly: GLADIATOR open-label Phase 3 study, long-term intermittent lasmiditan; MIDAS interim analysis. In kind it is in vivo, human. The following applies: for change in MIDAS migraine disability, headache days and headache pain/severity over time: lasmiditan 100 mg or 200 mg, up to 12 months. The procedure: The placebo-controlled Phase 3 studies SAMURAI (NCT02439320) and SPARTAN (NCT02605174) evaluated lasmiditan 50 mg [SPARTAN only], 100 mg and 200 mg. […] GLADIATOR (NCT02565186) is a prospective randomized open-label Phase 3 study to evaluate long-term intermittent use of lasmiditan (100 mg or 200 mg) for acute treatment of migraine. An interim analysis of the effects of lasmiditan on migraine disability assessed with the MIDAS scale in GLADIATOR is described below, and has provided surprising and unexpected evidence of persistent beneficial effects in migraine patients.
Patients who completed SAMURAI or SPARTAN were offered participation in GLADIATOR with randomization to lasmiditan 100 mg or lasmiditan 200 mg which represents an uncontrolled, open-label study. […] This interim analysis includes patients with MIDAS score data at baseline of GLADIATOR and post-baseline assessments. The analysis presented is based on the MIDAS questionnaire administered at baseline and at months 3, 6, 9 and 12. An additional analysis was also conducted in the subgroup of patients who completed 12 months. Changes were modelled using a mixed model repeated measures analysis MIDAS measures lost time due to migraine in days over 3 months. Domains included are activity limitations at work, household work or family, social and leisure activity.
Key inclusion criteria were patients who were eligible for SAMURAI or SPARTAN and had at least moderate migraine disability (MIDAS score ≥11). Patients were randomized 1:1 for acute treatment of migraine with either lasmiditan 100 mg for up to 12 months, or lasmiditan 200 mg for up to 12 months. Patients used lasmiditan as the first treatment for each new migraine attack (≤4 hours of Migraine pain onset). […] Assessments of safety and efficacy were conducted, including MIDAS questionnaires at baseline and months 3, 6, 9 and 12. MIDAS Questionnaire (See for example Stewart et al., Neurology 1999; 53:988-94, Stewart et al., Neurology 2001; 56: S20-8) The sum of Questions 1-5 below represents the Total MIDAS score. • 1. […]

The nature of series [2]: Fraction unbound in plasma and brain (FUplasma, FUbrain).
For series [3], the system named is simulated driving performance. Put plainly: Computer-based driving simulator study in healthy volunteers.

Molecules are shown by their SMILES. “Also recorded” adds a separate entry of the source.

Turning to `CN1CCC(C(=O)c2cccc(NC(=O)c3c(F)cc(F)cc3F)n2)CC1` [Lasmiditan, 2,4,6-trifluoro-N-[6-(1-methyl-piperidin-4-ylcarbonyl)-pyridin-2-yl]-benzamide], the “inhibition of dural plasma protein extravasation vs vehicle” value in series [1] (0.1 mg/kg po, 1 hour post-dose) is reported as “non-efficacious”; in series [1] (single 10 mg/kg po, 24 hours post-dose), “equally efficacious”; in series [1] (single 10 mg/kg po, 48 hours post-dose) it was “not at 48 hours”. Also, the “difference between lasmiditan 100 mg and 200 mg doses, any outcome” value with patients with migraine (GLADIATOR MIDAS outcomes) is reported as “no significant differences”. Also, the “change in MIDAS migraine disability, headache days and headache pain/severity over time” value with patients with migraine is “decreases over time”; in the series with patients with migraine (listed as lasmiditan), “large, clinically meaningful improvement; also recorded: a decrease over the 12-month treatment period”. The FUbrain result in series [2] (brain) is “FUbrain = 0.117,”. Also, the FUplasma result in series [2] (plasma) is given as “FUplasma = 0.459,”. The “time by which impaired simulated driving performance resolved” value in series [3] (after dosing) was at most 8 h. Also, the “driving impairment / simulated driving performance” value in series [3] (all doses, acute treatment) is “impair simulated driving performance in a dose-dependent manner; also recorded: associated with driving impairment”.
